{
  "source": "patent US20200237909A1",
  "about": "“METHODS OF TREATING OR PREVENTING BREAST CANCER METASTASES USING ANTIBODIES TO JAGGED1 AND CHEMOTHERAPEUTIC AGENTS” (The Trustees of Princeton University, priority 2017, published 2020)",
  "key": {"MSCs": {"test_system": "MSCs", "experiment": "Stress inducers/inhibitors: Jagged1 expression and ROS production in MSCs", "format": "cell-based, mouse", "source_text": "Next, which signaling pathway is responsible for Jagged1 induction after chemotherapy in osteoblast lineage cells was investigated. Chemotherapy generates many stress responses in cells, including endoplasmic reticulum stress (ER stress), and oxidative stress. Some of the stress conditions have been associated with the regulation of Jagged1 expression (Paul et al., 2014). Several treatments were used to mimic or inhibit these stress responses and then Jagged1 mRNA and protein levels were analyzed within the cells.\n293T, H29-Clone #7, MC3T3-E1 Clone #4(denoted as MC3T3 for abbreviation thereafter), MCF7TR, mouse mesenchymal stromal cell (MSC, isolated from BALB/c), 4T1.2, SCP28, SCP28-Vector and -Jagged1 cells, SCP28, RAW264.7, and SUM1315-M1B1 cells were cultured according to American Type Culture Collection instructions and the inventors' previous studies (Ell et al., 2013; Ren et al., 2008; Sethi et al., 2011; Zheng et al., 2014). MSC cells were derived previously and were cultured in DMEM supplemented with 10% FBS, 30 ng/ml bFGF, 100 U/ml penicillin, and 100 μg/ml streptomycin (Ren et al., 2008). All plasmids were transfected into different cell lines using Lipofectamine 2000 following the manufacturer's manual (Life Technologies, CA, USA). To generate stable cell lines, a pLEX-MCS based lentivirus vector or a pMSCV-hygro based retrovirus vector was used in our study. Lentiviruses were packaged in HEK293T cells while retroviruses were packaged by using H29 cell line. Conditional media from these packaging cells containing viruses were collected 2 days and 3 days after transfection. Recipient cell lines were exposed to conditional media containing viruses supplemented with 2 μg/mL Polybrene for 48 h. Infected cells were selected with puromycin or hygromycin to generate stable expressing cell lines. 293T and H29clone #7 are cell lines from female humans. All other cancer cell lines are breast cancer cell lines from either female human or mouse."}, "[1]": {"test_system": "MCF7, SCP28 and SUM1315-M1B1", "experiment": "Bone metastatic seeding after cisplatin pre-treatment (IIA injection, BLI)", "format": "in vivo, athymic nude mice", "conditions": "cisplatin one day before tumor cell injection, 4 days after injection", "procedure": "FIG. 5. Chemotherapy induces Jagged1 expression in osteoblast lineage cells. (A) Jagged1 mRNA expression in osteoblast MC3T3-E1-Clone #4 osteoblast cells and mesenchymal stem cells (MSC), HPMECL endothelial cells (endo), RAW264.7 pre-osteoclast cells, and SCP28 and SUM1315-M1B1 breast tumor cells 48 hr post-treatment with 25 nM paclitaxel or 10 μM cisplatin. (B) Athymic nude mice were i.v. injected with PBS or cisplatin and euthanized 48 hr later. Hind limb bones were collected for IF staining against Alp (green) and Jagged1 (red). Nuclei were counter-stained with DAPI (blue). (C-E) Athymic nude mice were treated with either PBS or cisplatin on Day 0. One day after the pre-treatment, MCF7 (C), SUM1315-M1B1 (D) or SCP28 (E) cells were delivered locally to the hind limbs of these mice by IIA injection. BLI imaging and quantification of BLI signal at Day 4. (F) Mice from experiment in E were euthanized after BLI imaging at Day 4. Hind limbs were fixed and processed for IF imaging of GFP-expressing tumor cells (green) and ALP positive osteoblasts (red). Size bar: 80 μm. In A: n=3. *p<0.05 by Student's t-test. In C-E: n=5. *p<0.05 by Student's t-test. #: statistically insignificant.\nTo directly test the effect of increased Jagged1 expression in osteoblasts on bone metastasis seeding and progression, two models were utilized. […]"}, "SUM1315-M1B1 cells": {"test_system": "SUM1315-M1B1 cells", "experiment": "SUM1315-M1B1 bone metastasis model", "format": "in vivo, athymic nude mice", "conditions": "Week 4", "source_text": "FIG. 9. 15D11 synergizes with chemotherapy to inhibit bone metastasis in the SUM1315-M1B1 model. (A) Western blot analysis of Jagged1 protein expression level in SUM1315-M1B1, SPC2, SCP28-Vector, and SCP28-Jagged1 cells. β-actin was used as loading control. (B) Schematic representation of the experimental procedure. In brief, SUM1315-M1B1 cells were IC injected into 4-6 weeks female athymic nude mice to generate bone metastases. One week later, mice were randomized into four groups and treated with respective therapeutic agents. Bone metastasis progression was monitored by weekly BLI imaging until the experimental endpoint (4 weeks after injection). (C) Representative BLI and X-ray images of mice in Week 4 right before euthanizing the mice. (D) Quantification of bone metastasis burden each week based on BLI imaging from the experiment. […] (E) Representative H&E staining and TRAP staining images of hind limb bones from experiment in A were shown. Scale bar: 100 μm. […] AU: arbitrary unit. n=10, **p<0.01 by Student's t-test. (G) Quantification of the number of TRAP-positive osteoclasts per field. n=5, **p<0.01 by Student's t-test.\nTo validate whether the observed synergy of combined treatment can also be observed in other models of bone metastasis beyond the MDA-MB-231 series, the bone metastatic SUM1315-M1B1 cell line was used. […]"}},
  "data": [
    {"molecule": "N.N.[Cl][Pt][Cl]", "note": "[cisplatin]", "values": [
      {"measurement": "ROS production in MSCs", "setting": "MSCs", "value": "induced ROS production"},
      {"measurement": "bone metastatic seeding (BLI)", "setting": "[1]", "value": "significant increase"}
    ]},
    {"molecule": "CC(=O)O[C@H]1C(=O)[C@@]2(C)[C@H]([C@H](OC(=O)c3ccccc3)[C@]3(O)C[C@H](OC(=O)[C@H](O)[C@@H](NC(=O)c4ccccc4)c4ccccc4)C(C)=C1C3(C)C)[C@]1(OC(C)=O)CO[C@@H]1C[C@@H]2O", "note": "[paclitaxel]", "values": [
      {"measurement": "bone metastasis burden (BLI signal)", "setting": "SUM1315-M1B1 cells", "value": "minor reduction of BLI signal"}
    ]}
  ]
}
